# Calls of active or inactive are those of the source.
# Tests used:
# [1] = target: T1, Low molecular weight phosphotyrosine protein phosphatase (Homo sapiens, UniProt P24666); format: functional; conditions: read-out: IC50_Mean;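 note: Dose-response confirmation assay measuring inhibition of LMPTP enzyme activity by fluorescence intensity read-out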
# T1 sequence (P24666 whole entry): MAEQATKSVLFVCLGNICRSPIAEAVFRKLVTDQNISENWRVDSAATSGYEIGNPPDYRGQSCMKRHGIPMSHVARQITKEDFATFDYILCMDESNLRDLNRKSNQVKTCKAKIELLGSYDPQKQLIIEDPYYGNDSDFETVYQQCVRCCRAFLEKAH
# [2] = target: T2, Polyadenylate-binding protein 1 (Homo sapiens, UniProt P11940); assay: MLLE domain peptide-binding blockers, IC50 – biochemical, fluorescence polarization, FITC-PAM2 peptide, dose response (AID 602259); format: functional; conditions: read-out: IC50_Mean
# T2 sequence (P11940 whole entry, the tested form may be a part): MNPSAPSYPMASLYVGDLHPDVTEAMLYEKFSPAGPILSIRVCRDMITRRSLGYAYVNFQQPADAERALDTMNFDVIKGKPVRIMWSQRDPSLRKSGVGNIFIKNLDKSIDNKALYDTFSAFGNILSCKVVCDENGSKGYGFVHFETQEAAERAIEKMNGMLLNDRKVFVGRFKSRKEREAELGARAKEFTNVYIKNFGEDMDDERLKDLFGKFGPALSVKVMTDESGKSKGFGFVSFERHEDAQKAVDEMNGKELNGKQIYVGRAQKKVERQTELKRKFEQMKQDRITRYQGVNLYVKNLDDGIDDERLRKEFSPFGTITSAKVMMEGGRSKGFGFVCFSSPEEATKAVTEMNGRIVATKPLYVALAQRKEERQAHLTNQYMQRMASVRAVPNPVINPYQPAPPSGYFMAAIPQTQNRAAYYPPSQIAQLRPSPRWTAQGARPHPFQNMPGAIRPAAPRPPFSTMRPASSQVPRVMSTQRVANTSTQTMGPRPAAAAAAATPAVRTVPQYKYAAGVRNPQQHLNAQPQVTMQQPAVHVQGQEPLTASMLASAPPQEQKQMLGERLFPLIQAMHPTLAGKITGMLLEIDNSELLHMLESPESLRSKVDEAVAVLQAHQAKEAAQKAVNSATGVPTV
# [3] = target: Glutathione-S-transferase (Schistosoma japonicum, UniProt Q26513); assay: GST-antibody interaction or FRET quenching – biochemical, TR-FRET, artefact control for Vif-APOBEC3G degradation inhibitor project, dose response (AID 1117362); format: functional
# Chain of Glutathione-S-transferase (Q26513 whole entry): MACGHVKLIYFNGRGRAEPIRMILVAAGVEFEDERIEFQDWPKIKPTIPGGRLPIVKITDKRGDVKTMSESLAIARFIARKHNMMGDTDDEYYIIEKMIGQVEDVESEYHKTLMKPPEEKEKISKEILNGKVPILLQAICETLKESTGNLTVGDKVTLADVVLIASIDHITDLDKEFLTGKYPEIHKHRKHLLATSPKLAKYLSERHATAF
# [4] = target: T2, Polyadenylate-binding protein 1; assay: MLLE binding blockers, Cy5 peptide tracer – biochemical, fluorescence polarization, Cy5-PAM2 peptide, secondary, miRNA deadenylation inhibitor project, dose response (AID 602260); format: functional; conditions: read-out: IC50_Mean
# [5] = inhibition of ADAM10 peptide cleavage – biochemical, FRET peptide substrate, recombinant human ADAM10, selectivity assay for ADAM17 exosite inhibitor project, dose response (AID 743259);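 note: ADAM10 enzyme cleaving a FRET peptide substrate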
# [6] = target: Disintegrin and metalloproteinase domain-containing protein 17 (Homo sapiens, UniProt P78536); assay: exosite inhibitors of ADAM17, dose response, biochemical (AID 743260)
# Chain of Disintegrin and metalloproteinase domain-containing protein 17 (P78536 whole entry, the tested form may be a part): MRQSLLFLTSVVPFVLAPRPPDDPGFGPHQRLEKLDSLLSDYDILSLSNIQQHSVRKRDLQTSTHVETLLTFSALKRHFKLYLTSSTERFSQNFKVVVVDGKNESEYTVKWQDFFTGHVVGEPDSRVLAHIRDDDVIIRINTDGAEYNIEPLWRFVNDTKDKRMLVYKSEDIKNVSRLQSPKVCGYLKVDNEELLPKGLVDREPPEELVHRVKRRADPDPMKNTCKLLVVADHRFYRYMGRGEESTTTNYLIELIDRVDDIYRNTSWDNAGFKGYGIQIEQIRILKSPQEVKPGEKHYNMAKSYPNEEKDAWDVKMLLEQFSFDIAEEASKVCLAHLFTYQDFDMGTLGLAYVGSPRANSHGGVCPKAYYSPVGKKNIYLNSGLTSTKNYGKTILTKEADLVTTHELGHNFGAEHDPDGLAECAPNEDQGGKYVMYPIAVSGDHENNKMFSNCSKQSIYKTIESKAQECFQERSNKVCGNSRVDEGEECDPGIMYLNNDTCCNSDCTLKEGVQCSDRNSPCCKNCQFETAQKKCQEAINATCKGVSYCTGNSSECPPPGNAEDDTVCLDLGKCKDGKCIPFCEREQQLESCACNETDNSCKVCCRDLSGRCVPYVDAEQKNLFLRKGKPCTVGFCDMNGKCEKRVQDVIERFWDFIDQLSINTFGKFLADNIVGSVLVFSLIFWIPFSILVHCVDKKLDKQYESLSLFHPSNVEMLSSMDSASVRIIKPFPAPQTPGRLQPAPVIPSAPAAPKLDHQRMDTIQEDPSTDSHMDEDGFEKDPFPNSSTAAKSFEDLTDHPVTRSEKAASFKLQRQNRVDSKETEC
# [7] = target: Ephrin type-A receptor 4 (Mus musculus, UniProt Q03137); assay: EphA4 ligand-binding antagonists – biochemical, colorimetric, mouse EphA4, primary screen (AID 689); format: functional
# Chain of Ephrin type-A receptor 4 (Q03137 whole entry, the tested form may be a part): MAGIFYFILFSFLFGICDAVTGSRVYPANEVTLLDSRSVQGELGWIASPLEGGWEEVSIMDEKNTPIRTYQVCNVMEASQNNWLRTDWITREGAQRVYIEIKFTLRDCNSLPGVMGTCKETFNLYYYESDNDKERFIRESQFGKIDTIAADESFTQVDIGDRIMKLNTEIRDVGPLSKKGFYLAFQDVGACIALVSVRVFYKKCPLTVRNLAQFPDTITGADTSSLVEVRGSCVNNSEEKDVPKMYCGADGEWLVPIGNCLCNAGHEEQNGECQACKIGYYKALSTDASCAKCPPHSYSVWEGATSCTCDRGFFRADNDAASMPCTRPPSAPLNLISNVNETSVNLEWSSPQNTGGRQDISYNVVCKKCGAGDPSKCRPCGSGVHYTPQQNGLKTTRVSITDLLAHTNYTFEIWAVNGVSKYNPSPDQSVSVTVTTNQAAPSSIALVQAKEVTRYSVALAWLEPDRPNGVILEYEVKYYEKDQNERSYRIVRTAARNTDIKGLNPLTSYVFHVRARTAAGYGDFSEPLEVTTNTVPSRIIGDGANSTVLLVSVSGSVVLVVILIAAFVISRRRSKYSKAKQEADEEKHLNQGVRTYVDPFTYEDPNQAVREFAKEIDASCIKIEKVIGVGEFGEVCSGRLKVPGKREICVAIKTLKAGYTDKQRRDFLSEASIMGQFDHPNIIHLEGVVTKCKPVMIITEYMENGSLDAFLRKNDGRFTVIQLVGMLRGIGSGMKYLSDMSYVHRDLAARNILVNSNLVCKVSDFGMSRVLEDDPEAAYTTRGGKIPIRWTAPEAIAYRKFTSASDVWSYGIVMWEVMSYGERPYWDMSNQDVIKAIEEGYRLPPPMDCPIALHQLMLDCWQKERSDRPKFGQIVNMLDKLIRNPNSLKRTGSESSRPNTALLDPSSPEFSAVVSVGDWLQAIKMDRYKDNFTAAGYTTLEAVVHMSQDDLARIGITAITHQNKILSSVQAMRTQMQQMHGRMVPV
# [8] = target: T3, Oxysterols receptor LXR-beta (Homo sapiens, UniProt P55055); assay: LXR agonists, Gal4 luciferase reporter, dose response, counter-screen for ssDAF-12 agonist project, cell-based, luminescence, HEK293, S. stercoralis campaign (AID 720737); format: functional; conditions: read-out: IC50 (the source's name)
# T3 sequence (P55055 whole entry): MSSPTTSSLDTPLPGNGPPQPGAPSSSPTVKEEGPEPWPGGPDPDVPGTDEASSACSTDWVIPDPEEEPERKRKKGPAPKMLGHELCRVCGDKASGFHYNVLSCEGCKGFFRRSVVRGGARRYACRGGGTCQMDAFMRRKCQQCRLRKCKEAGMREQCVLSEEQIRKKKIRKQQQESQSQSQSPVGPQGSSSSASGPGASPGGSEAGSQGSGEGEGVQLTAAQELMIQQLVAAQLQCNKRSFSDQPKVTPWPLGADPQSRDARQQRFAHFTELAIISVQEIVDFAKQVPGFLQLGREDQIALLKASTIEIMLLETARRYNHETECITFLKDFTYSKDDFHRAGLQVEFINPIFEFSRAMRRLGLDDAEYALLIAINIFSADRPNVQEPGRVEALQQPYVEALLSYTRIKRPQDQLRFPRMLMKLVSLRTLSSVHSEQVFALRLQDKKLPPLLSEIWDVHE
# [9] = Luminescence-based cell-based high throughput dose response assay to identify activators of the DAF-12 from the parasite S. stercoralis (ssDAF-12).; format: functional
# [10] = target: Paired box protein Pax-8 (Homo sapiens, UniProt Q06710); assay: PAX8 transcriptional activity inhibition in RMG-I – RMG-I cells, luciferase, cherry-pick, dose response (AID 687027); format: functional, cell-based;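 note: luciferase reporter driven by Pax8 target thyroperoxidase promoter measured by SteadyGlo luminescence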
# Chain of Paired box protein Pax-8 (Q06710 whole entry): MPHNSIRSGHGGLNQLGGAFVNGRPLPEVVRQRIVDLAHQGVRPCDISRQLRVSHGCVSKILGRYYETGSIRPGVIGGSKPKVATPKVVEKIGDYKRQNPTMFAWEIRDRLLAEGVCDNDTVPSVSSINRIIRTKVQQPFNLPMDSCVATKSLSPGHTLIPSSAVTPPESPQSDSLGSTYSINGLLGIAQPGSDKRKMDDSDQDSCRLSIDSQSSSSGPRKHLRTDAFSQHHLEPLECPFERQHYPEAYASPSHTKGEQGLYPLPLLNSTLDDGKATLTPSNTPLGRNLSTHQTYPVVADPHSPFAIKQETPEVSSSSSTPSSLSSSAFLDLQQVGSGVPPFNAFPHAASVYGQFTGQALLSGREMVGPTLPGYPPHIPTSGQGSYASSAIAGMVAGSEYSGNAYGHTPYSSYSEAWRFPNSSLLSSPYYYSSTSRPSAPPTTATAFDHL
# [11] = IGROV1 cell killing – plate reader, dry powder samples, PAX8 inhibitor project, dose response (AID 743043); format: functional, cell-based; conditions: IGROV-1
# [12] = inhibitors acting on PAX2 in cells – cell-based, plate reader, dry powder samples, selectivity assay for PAX8 inhibitor project, dose response (AID 743048); format: functional;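 note: HEK293 cells carrying a WT1 promoter luciferase reporter driven by expressed Pax2; potency is for inhibition of Pax2 driven reporter signal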
# [13] = COV434 cell viability loss – plate reader, dry powder, SA7, cytotoxicity control for PAX8 inhibitor project, dose response (AID 743145); format: functional, cell-based
# [14] = OV-90 cell viability loss – plate reader, dry powder, SA8, PAX8 inhibitor project, dose response (AID 743149); format: functional, cell-based
# [15] = PAX5 cellular inhibition readout – cell-based, plate reader, dry powder samples, selectivity assay for PAX8 inhibitor project, dose response (AID 743047); format: functional;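 note: HEK293 cells carrying a Pax5 driven CD19 promoter luciferase reporter; potency of inhibitors that lower reporter luminescence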
# [16] = OVCAR-3 cell viability loss – plate reader, dry powder samples, PAX8 inhibitor project, dose response (AID 743044); format: functional, cell-based
# [17] = PAX8-dependent cell viability loss – plate reader, dry powder, dose response (AID 743049); format: functional, cell-based
# [18] = cytotoxicity in MITF-independent A375 cells – cell-based, CellTiter-Glo luminescence, dry powder, set 4, counter-screen for MITF inhibitor project, dose response (AID 624364); format: functional; conditions: A-375;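 note: A375 melanoma cells are MITF independent so this is a counter screen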
# [19] = viability loss in MITF-independent A375 cells – cell-based, CellTiter-Glo luminescence, dry powder, set 2, counter-screen for MITF inhibitor project, dose response (AID 624489); format: functional; conditions: A-375;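 note: actives are compounds lowering A375 viability meaning general cytotoxicity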
# [20] = OVCAR8 cell viability loss – plate reader, dry powder samples, PAX8 project, dose response (AID 743197); format: functional, cell-based; conditions: OVCAR-8
# [21] = HEK293 Cytotoxicity Assay Measured in Cell-Based System Using Plate Reader - 7071-01_Inhibitor_Dose_CherryPick_Activity_Set2.; format: functional
# [22] = system: HEK293; assay: viability loss in HEK293T cells – cell-based, ATP luminescence, cherry-pick samples, cytotoxicity control, dose response (AID 687005); format: functional; conditions: Homo sapiens;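 note: cells exposed to compound for 48 hours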
# [23] = general cell-killing toxicity readout – plate reader, dry powder samples, cytotoxicity control for PAX8 inhibitor project, dose response (AID 743021); format: functional, cell-based
# [24] = P. falciparum Dd2 growth inhibitors, dose response, SYBR Green, cherry-picked samples (AID 1159567); format: functional, cell-based
# [25] = toxicity to human hepatoma HepG2 cells – cell-based, cherry-picked samples, cytotoxicity control, dose response (AID 1159577); format: functional
# [26] = IC50 of insulin release inhibition, rat insulinoma INS-1E line, 5 mM glucose, cell-based (AID 1117331); format: functional
# [27] = inhibitors of TRPM1-promoter reporter in SK-MEL-5 – cell-based, luciferase, dry powder, set 8, MITF inhibitor project, dose response (AID 624430); format: functional
# [28] = MITF Orthogonal Assay: SK-MEL-5 CTG Assay Measured in Cell-Based System Using Plate Reader - 2084-02_Inhibitor_Dose_DryPowder_Activity_Set7.; format: functional
# [29] = MITF: Counter assay: A375 proliferation Measured in Cell-Based System Using Plate Reader - 2084-03_Inhibitor_Dose_DryPowder_Activity_Set8.; format: functional; conditions: A-375
# [30] = target: G-protein coupled receptor 183 (Homo sapiens, UniProt P32249); assay: SAR confirmation of small molecule antagonists of the EBI2 receptor via a luminescent beta-arrestin assa.; format: functional
# Chain of G-protein coupled receptor 183 (P32249 whole entry): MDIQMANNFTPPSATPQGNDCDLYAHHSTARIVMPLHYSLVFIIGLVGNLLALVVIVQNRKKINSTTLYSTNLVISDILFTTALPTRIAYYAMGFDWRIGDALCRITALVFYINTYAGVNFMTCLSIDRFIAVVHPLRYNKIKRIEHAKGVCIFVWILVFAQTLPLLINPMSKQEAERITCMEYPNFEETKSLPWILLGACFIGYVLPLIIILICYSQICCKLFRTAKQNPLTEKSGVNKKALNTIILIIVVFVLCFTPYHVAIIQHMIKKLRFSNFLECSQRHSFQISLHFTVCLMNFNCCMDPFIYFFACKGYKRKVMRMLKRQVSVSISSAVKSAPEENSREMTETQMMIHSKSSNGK
# [31] = target: T4, Dual specificity protein phosphatase 6 (Rattus norvegicus, UniProt Q64346); assay: inhibition of rat DUSP6 enzyme activity – biochemical, in vitro, primary screen (AID 425)
# T4 sequence (Q64346 whole entry): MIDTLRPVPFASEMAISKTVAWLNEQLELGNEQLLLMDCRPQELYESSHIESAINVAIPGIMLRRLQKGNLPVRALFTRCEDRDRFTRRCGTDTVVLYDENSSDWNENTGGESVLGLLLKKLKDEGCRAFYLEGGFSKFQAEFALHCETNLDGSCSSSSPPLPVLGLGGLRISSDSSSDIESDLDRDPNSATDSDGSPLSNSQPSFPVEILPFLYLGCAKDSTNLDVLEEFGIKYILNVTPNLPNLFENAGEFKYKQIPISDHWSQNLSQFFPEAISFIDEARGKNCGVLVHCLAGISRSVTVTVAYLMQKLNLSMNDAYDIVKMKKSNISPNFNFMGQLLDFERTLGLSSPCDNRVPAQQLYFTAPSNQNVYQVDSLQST
# [32] = glucagon-like peptide-1 release potency in STC-1, concentration-response, half-maximal inhibitory concentration in the STC-1 line (AID 1117345); format: functional, cell-based
# [33] = Potency on glucagon-like peptide 1 release, dose-response in NCI-H716 cell line, half maximal inhibitory concentration (AID 1117344); format: functional, cell-based
# [34] = CellTiter-Glo luminescence survival assay, SW480 colon tumor line, concentration-response curve, half-maximal inhibitory concentration (AID 1117338); format: functional
# [35] = cytotoxicity toward HCT116 cells – cell-based, CellTiter-Glo luminescence, IC50, dose response (AID 1117332); format: functional; conditions: HCT-116
# [36] = cytotoxicity toward HT-29 cells – cell-based, CellTiter-Glo luminescence, IC50, dose response (AID 1117330); format: functional
# [37] = SNU-C1 cell viability reduction, dose response, CellTiter-Glo luminescence (AID 1117323); format: functional, cell-based
# [38] = Reduced DLD-1 viability, concentration-response, CellTiter-Glo luminescence (AID 1117352); format: functional
smiles,measurement,setting,value
CN=c1cccccc1S,IC50,[1],49 µM (inactive)
same,IC50,[2],> 66 µM (inactive)
same,IC50,[3],> 100 µM (active)
same,IC50,[4],> 66 µM (inactive)
O=C(NCC1COc2ccccc2O1)c1cccc(S(=O)(=O)N2CCN(c3ccccc3)CC2)c1 (stereo not given),IC50,[5],> 69.5 µM (inactive)
same,IC50,[6],> 69.5 µM (inactive)
Cc1ccsc1/C=C/C1=Cc2c(sc(NC(=O)CSc3nnc(N)[nH]3)c2C#N)C(C)(C)C1,IC50,[7],3.15 µM (active)
CCCN1C(=O)/C(=C/C=C2\N(CC)c3ccccc3C2(C)C)SC1=S,IC50,[7],5.08 µM (active)
O=C(COn1nnc2ccc(C(F)(F)F)cc21)Nc1c(Cl)cccc1Cl,EC50,[8],> 67.6 µM (inactive)
same,IC50,[9],> 67.6 µM (inactive)
O=C1c2ccccc2C(=O)N1CC(O)CN1CCOCC1 (stereo not given),EC50,[8],> 67.5 µM (inactive)
same,IC50,[9],> 67.5 µM (inactive)
CCc1ccc(/C=C2\SC(=S)N(CCCC(=O)N(CCO)c3ccccc3)C2=O)cc1,AC50,[10],7.65 µM (active)
same,AC50,[11],9.33 µM (active)
same,AC50,[12],31.9 µM (active)
same,AC50,[13],8.05 µM (active)
same,AC50,[14],35.1 µM (active)
same,AC50,[15],33 µM (active)
same,AC50,[16],29.1 µM (active)
same,AC50,[17],15.1 µM (active)
NC1=C(c2ccccc2)C(=O)c2ccccc2C1=O,AC50,[18],> 70 µM (inactive)
same,AC50,[19],> 70 µM (inactive)
COc1ccc(S(=O)(=O)Nc2ccc3c(c2)C(=O)N([C@@H](C)CO)C[C@H](C)[C@@H](CN(C)C(=O)Nc2ccc(C(F)(F)F)cc2)OCCCC[C@@H](C)O3)cc1,AC50,[10],9.96 µM (active)
same,AC50,[11],41.5 µM (active)
same,AC50,[20],29.6 µM (active)
same,AC50,[16],20.5 µM (active)
C[C@@H]1CCCCO[C@H](CN(C)Cc2ccccc2)[C@H](C)CN([C@@H](C)CO)C(=O)c2cc(NS(=O)(=O)c3cccs3)ccc2O1,AC50,[21],30.9 µM (active)
same,AC50,[22],30.9 µM (active)
O=C1CN(S(=O)(=O)Cc2ccccc2)C[C@@H]2[C@@H](c3ccc(C#Cc4ccc(F)cc4)cc3)[C@@H](CO)N12,AC50,[23],18.5 µM (active)
same,AC50,[10],4.64 µM (active)
same,AC50,[11],17.4 µM (active)
same,AC50,[20],35.9 µM (active)
same,AC50,[24],5.57 µM (active)
same,AC50,[25],9.1 µM (active)
O=C(Nc1cccc(F)c1)N[C@H]1CC[C@H](CCNS(=O)(=O)c2cccc(Cl)c2)O[C@@H]1CO,AC50,[21],26 µM (active)
same,AC50,[22],26 µM (active)
CCC(CN)=C(c1ccccc1)c1ccccc1,IC50,[26],10.8 µM (inactive)
COC(=O)[C@H](CC(C)C)N(CCc1cn(Cc2ccccc2)nn1)S(=O)(=O)c1ccccc1Br,IC50,[5],> 69.5 µM (inactive)
same,IC50,[6],> 69.5 µM (inactive)
CN1CCN(C2=C(NC(=O)c3ccc(Br)cc3)C(=O)c3ccccc3C2=O)CC1,AC50,[18],23.5 µM (active)
same,AC50,[19],8.99 µM (active)
O=C1C(Nc2cccc(Br)c2)=C(N2CCCC2)C(=O)c2ccccc21,AC50,[27],13.1 µM (active)
same,AC50,[28],11.8 µM (active)
same,AC50,[29],> 70 µM (inactive)
O=C(/C=C/c1ccc(F)cc1)N1CCN(S(=O)(=O)c2cccc(Cl)c2)CC1,IC50,[30],11.5 nM (active)
O=C(/C=C/c1ccccc1F)N1CCN(S(=O)(=O)c2ccc(Br)cc2)CC1,IC50,[30],252 nM (active)
O=C1C(Nc2ccc(Cl)cc2)=C(N2CCCCC2)C(=O)c2ccccc21,AC50,[27],2.87 µM (active)
same,AC50,[28],4.38 µM (active)
same,AC50,[29],26.8 µM (active)
C[C@H]1C[C@H]2[C@@H]3CCC4=CC(=O)C=C[C@]4(C)[C@@]3(Cl)[C@@H](O)C[C@]2(C)[C@@]1(O)C(=O)CO [BECLOMETHASONE],IC50,[31],> 100 µM (not active)
CCCCCCCCCCCC[N+](C)(C)CCOc1ccccc1 [DOMIPHEN BROMIDE],IC50,[32],> 40 µM (inactive)
same,IC50,[33],16.2 µM (inactive)
CC(C(=O)O)c1cccc(C(=O)c2ccccc2)c1 (stereo not given) [KETOPROFEN],IC50,[34],10.3 µM (inactive)
same,IC50,[35],10.5 µM (inactive)
same,IC50,[36],14.4 µM (inactive)
same,IC50,[37],3.8 µM (active)
same,IC50,[38],8.64 µM (inactive)
Cc1cc(OI)c(C(C)C)cc1-c1cc(C(C)C)c(OI)cc1C [THYMOL IODIDE],IC50,[26],> 33.3 µM (inactive)
same,IC50,[32],15.1 µM (inactive)
same,IC50,[33],> 40 µM (inactive)
